# Earlier results in US20240315993A1, “ANTIPARASITIC COMPOUNDS” (Intervet Inc., priority 2021, published 2024).
# Columns and labels:
# [1] = tested on: Beet Armyworm (Spodoptera exigua); settings: Beet Armyworm second instar larvae, 128-well diet tray, 50 μg/cm^2, five to seven days, average of eight wells; cited from earlier work
# [2] = tested on: Cabbage Looper (Trichoplusia ni); settings: Cabbage Looper second instar larvae, 128-well diet tray, 50 μg/cm^2, five to seven days, average of eight wells; cited from earlier work
# [3] = tested on: Yellow Fever Mosquito (Aedes aegypti); settings: Aedes aegypti larvae about 1 day old, 96-well plate, scored after 3 days; cited from earlier work
Structure (SMILES),"Test A: Bioassay on BAW, percent mortality rating [1]","Test B: Bioassay on CL, percent mortality rating [2]","Test C: Bioassay on Yellow Fever Mosquito, mortality rating [3]"
Cc1c(NC(=O)c2cc(NC(=O)C3C(c4cc(Cl)cc(Cl)c4)C3(Cl)Cl)ccc2Cl)ccc2[nH]ccc12 (stereo not drawn) [c69],A (50-100),A (50-100),A (80-100)
CC(C)(C)c1cc2cc(NC(=O)c3cc(NC(=O)C4C(c5cc(Cl)cc(Cl)c5)C4(Cl)Cl)ccc3Cl)ccc2[nH]1 (stereo not drawn) [c70],A (50-100),A (50-100),A (80-100)
COC(=O)C(O)(c1ccc(NC(=O)c2cc(NC(=O)C3C(c4cc(Cl)cc(Cl)c4)C3(Cl)Cl)ccc2Cl)c(C)c1)C(F)(F)F (stereo not drawn) [c71],A (50-100),A (50-100),A (80-100)
C=C(c1ccc(NC(=O)c2cc(NC(=O)C3C(c4cc(Cl)cc(Cl)c4)C3(Cl)Cl)ccc2Cl)c(C)c1)C(F)(F)F (stereo not drawn) [c72],A (50-100),A (50-100),B (More than 0 - Less than 80)
CCn1ccc2cc(NC(=O)c3cc(NC(=O)C4C(c5cc(Cl)cc(Cl)c5)C4(Cl)Cl)ccc3Cl)ccc21 (stereo not drawn) [c73],A (50-100),A (50-100),A (80-100)
Cc1cc(NC(=O)OC(C)(C)C)ccc1NC(=O)c1cccc(NC(=O)C2C(c3cc(Cl)c(Cl)c(Cl)c3)C2(Cl)Cl)c1 (stereo not drawn) [c74],A (50-100),A (50-100),B (More than 0 - Less than 80)
Cc1cc(NC(=O)OC(C)(C)C)ccc1NC(=O)c1cccc(NC(=O)C2C(c3cc(Cl)cc(Cl)c3)C2(Cl)Cl)c1 (stereo not drawn) [c75],A (50-100),A (50-100),B (More than 0 - Less than 80)
Cc1cc(N)ccc1NC(=O)c1cccc(NC(=O)C2C(c3cc(Cl)c(Cl)c(Cl)c3)C2(Cl)Cl)c1 (stereo not drawn) [c76],A (50-100),A (50-100),A (80-100)
Cc1cc(N)ccc1NC(=O)c1cccc(NC(=O)C2C(c3ccc(Cl)c(Cl)c3)C2(Cl)Cl)c1 (stereo not drawn) [c77],A (50-100),A (50-100),A (80-100)
Cc1cc(N)ccc1NC(=O)c1cccc(NC(=O)C2C(c3cc(Cl)cc(Cl)c3)C2(Cl)Cl)c1 (stereo not drawn) [c78],A (50-100),A (50-100),A (80-100)
O=C(Nc1ccccc1)c1cc(NC(=O)C2C(c3cc(Cl)cc(Cl)c3)C2(Cl)Cl)cc(Cl)c1Cl (stereo not drawn) [c79],A (50-100),A (50-100),A (80-100)
CNc1ccc(NC(=O)c2cc(NC(=O)C3C(c4cc(Cl)cc(Cl)c4)C3(Cl)Cl)cc(Cl)c2Cl)cc1 (stereo not drawn) [c80],A (50-100),A (50-100),A (80-100)
Cc1cc(NC(=O)OC(C)(C)C)ccc1NC(=O)c1cc(NC(=O)C2C(c3cc(Cl)cc(Cl)c3)C2(Cl)Cl)ccc1Cl (stereo not drawn) [c81],A (50-100),A (50-100),A (80-100)
Cc1cc(N)ccc1NC(=O)c1cc(NC(=O)C2C(c3cc(Cl)c(Cl)c(Cl)c3)C2(Cl)Cl)ccc1Cl (stereo not drawn) [c84],A (50-100),A (50-100),A (80-100)
N#Cc1ccc(NC(=O)c2cc(NC(=O)C3C(c4cc(Cl)cc(Cl)c4)C3(Cl)Cl)ccc2Cl)c(C#N)c1 (stereo not drawn) [c85],A (50-100),A (50-100),A (80-100)
CN1C(=O)CCc2cc(NC(=O)c3cc(NC(=O)C4C(c5cc(Cl)cc(Cl)c5)C4(Cl)Cl)ccc3Cl)ccc21 (stereo not drawn) [c86],A (50-100),A (50-100),A (80-100)
CN1CCCc2cc(NC(=O)c3cc(NC(=O)C4C(c5cc(Cl)cc(Cl)c5)C4(Cl)Cl)ccc3Cl)ccc21 (stereo not drawn) [c87],A (50-100),A (50-100),A (80-100)
O=C(Nc1ccc2c(c1)CCCN2)c1cc(NC(=O)C2C(c3cc(Cl)cc(Cl)c3)C2(Cl)Cl)ccc1Cl (stereo not drawn) [c88],A (50-100),A (50-100),A (80-100)

Structure (SMILES),"Test A: Bioassay on BAW, percent mortality rating [1]","Test B: Bioassay on CL, percent mortality rating [2]","Test C: Bioassay on Yellow Fever Mosquito, mortality rating [3]"
Cc1cc(N)ccc1NC(=O)c1cc(NC(=O)C2C(c3ccc(F)c(Cl)c3)C2(Cl)Cl)ccc1Cl (stereo not drawn) [c89],A (50-100),A (50-100),A (80-100)
CC(=O)Nc1cccc(NC(=O)c2cc(NC(=O)C3C(c4cc(Cl)cc(Cl)c4)C3(Cl)Cl)ccc2Cl)n1 (stereo not drawn) [c90],A (50-100),A (50-100),A (80-100)
N#Cc1ccc(NC(=O)c2cc(NC(=O)C3C(c4cc(Cl)cc(Cl)c4)C3(Cl)Cl)ccc2Cl)nc1N (stereo not drawn) [c91],A (50-100),A (50-100),D (No activity noticed in this bioassay)
CS(=NC#N)c1ccc(NC(=O)c2cc(NC(=O)C3C(c4cc(Cl)cc(Cl)c4)C3(Cl)Cl)ccc2Cl)cc1 (stereo not drawn) [c92],A (50-100),A (50-100),A (80-100)
O=C(Nc1ccc2c(ccn2CCF)c1)c1cc(NC(=O)C2C(c3cc(Cl)cc(Cl)c3)C2(Cl)Cl)ccc1Cl (stereo not drawn) [c93],A (50-100),A (50-100),A (80-100)
O=C(Nc1ccc2[nH]c(-c3ccccc3)cc2c1)c1cc(NC(=O)C2C(c3cc(Cl)cc(Cl)c3)C2(Cl)Cl)ccc1Cl (stereo not drawn) [c94],A (50-100),A (50-100),A (80-100)
Cc1cccc(NC(=O)c2cc(NC(=O)C3C(c4cc(Cl)cc(Cl)c4)C3(Cl)Cl)ccc2Cl)c1C#N (stereo not drawn) [c95],A (50-100),A (50-100),A (80-100)
CN1Cc2ccc(NC(=O)c3cc(NC(=O)C4C(c5cc(Cl)cc(Cl)c5)C4(Cl)Cl)ccc3Cl)cc2C1 (stereo not drawn) [c96],A (50-100),A (50-100),A (80-100)
CC(C)(C)OC(=O)Nc1cccc(NC(=O)c2cc(NC(=O)C3C(c4cc(Cl)cc(Cl)c4)C3(Cl)Cl)ccc2Cl)n1 (stereo not drawn) [c97],A (50-100),A (50-100),D (No activity noticed in this bioassay)
CC(C)(C)OC(=O)Nc1cccc(NC(=O)c2cc(NC(=O)C3C(c4ccc(F)c(Cl)c4)C3(Cl)Cl)ccc2Cl)n1 (stereo not drawn) [c98],A (50-100),A (50-100),A (80-100)
O=C(Nc1ccc2c(c1)CCN2)c1cc(NC(=O)C2C(c3cc(Cl)cc(Cl)c3)C2(Cl)Cl)ccc1Cl (stereo not drawn) [c99],A (50-100),A (50-100),A (80-100)
CNc1ccc(NC(=O)c2cc(NC(=O)C3C(c4ccc(Br)c(Cl)c4)C3(Cl)Cl)ccc2Cl)c(C)c1 (stereo not drawn) [c100],A (50-100),A (50-100),A (80-100)
Cc1cc(N)ccc1NC(=O)c1cc(NC(=O)C2C(c3ccc(Br)c(Cl)c3)C2(Cl)Cl)ccc1Cl (stereo not drawn) [c101],A (50-100),A (50-100),A (80-100)
Cc1cc(NC(=O)OC(C)(C)C)ccc1NC(=O)c1cc(NC(=O)C2C(c3cc(Cl)cc(Br)c3)C2(Cl)Cl)ccc1Cl (stereo not drawn) [c102],A (50-100),A (50-100),D (No activity noticed in this bioassay)
Cc1cc(N)ccc1NC(=O)c1cc(NC(=O)C2C(c3cc(Cl)cc(Br)c3)C2(Cl)Cl)ccc1Cl (stereo not drawn) [c103],A (50-100),A (50-100),A (80-100)
CN1Cc2ccc(NC(=O)c3cc(NC(=O)C4C(c5cc(Cl)cc(Cl)c5)C4(Cl)Cl)ccc3Cl)cc2C1=O (stereo not drawn) [c104],A (50-100),A (50-100),A (80-100)
CN1Cc2cc(NC(=O)c3cc(NC(=O)C4C(c5cc(Cl)cc(Cl)c5)C4(Cl)Cl)ccc3Cl)ccc2C1=O (stereo not drawn) [c105],A (50-100),A (50-100),A (80-100)
